Reference: patent publication US20240226107A1, “UBIQUITIN-SPECIFIC PROTEASE 1 (USP1) INHIBITOR” (SIMCERE ZAIMING PHARMACEUTICAL CO., LTD., priority 2021, published 2024)

Assays:
[1] = biological target: USP1 (Recombinant Human His6-USP1/His6-UAF1 Complex Protein) (Homo sapiens (Human), UniProt O94782); test: In vitro activity assay for USP1 (Ub-CHOP2-Reporter deubiquitination assay); format: biochemical; conditions: 0.5 h incubation at room temperature, read-out: In vitro inhibitory activity of USP1 IC50
Method: The assay kit (Ub-CHOP2-Reporter Deubiquitination Assay Kit) was purchased from Lifesensors, with Cat. No. of PR1101. The assay kit was subpackaged and stored at −80° C.
Each compound to be tested was dissolved with DMSO to 10 mM. The compound and pure DMSO (with a total volume of 50 nL) were loaded to each well of the 384-well plate by using an ECHO instrument to obtain gradient-diluted sample concentrations at different ratios. The enzyme was diluted with a freshly prepared reaction solution (20 mM Tris-HCl (pH 8.0), 2 mM CaCl2, 2 mM β-mercaptoethanol, 0.05% CHAPS, and ddH2O). To each well, 5 μL of diluted enzyme reaction solution was added, then the plate was centrifuged and oscillated to mix the enzyme and the compound, and the mixture was centrifuged again and placed on ice. The kit reporter system and the substrate were diluted with the reaction solution, then 5 μL of diluted liquid was added to each well, and mixed by centrifugation. The mixture was incubated at room temperature for 0.5 h. […] The inhibitory activity (IC50 values) of the compound on enzyme activity was calculated by using a four-parameter Logistic Model. […] A, B, C, and D are four parameters.

[2] = system: MDA-MB-436 cells;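 also: MDA-MB-436 proliferation over 7 days with compound, viability read as ATP luminescence (CellTiter-Glo), inhibition relative to DMSO-only wells, day 0 signal as background, GI50 from four-parameter fit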

USP1 (Recombinant Human His6-USP1/His6-UAF1 Complex Protein), sequence (O94782 whole entry): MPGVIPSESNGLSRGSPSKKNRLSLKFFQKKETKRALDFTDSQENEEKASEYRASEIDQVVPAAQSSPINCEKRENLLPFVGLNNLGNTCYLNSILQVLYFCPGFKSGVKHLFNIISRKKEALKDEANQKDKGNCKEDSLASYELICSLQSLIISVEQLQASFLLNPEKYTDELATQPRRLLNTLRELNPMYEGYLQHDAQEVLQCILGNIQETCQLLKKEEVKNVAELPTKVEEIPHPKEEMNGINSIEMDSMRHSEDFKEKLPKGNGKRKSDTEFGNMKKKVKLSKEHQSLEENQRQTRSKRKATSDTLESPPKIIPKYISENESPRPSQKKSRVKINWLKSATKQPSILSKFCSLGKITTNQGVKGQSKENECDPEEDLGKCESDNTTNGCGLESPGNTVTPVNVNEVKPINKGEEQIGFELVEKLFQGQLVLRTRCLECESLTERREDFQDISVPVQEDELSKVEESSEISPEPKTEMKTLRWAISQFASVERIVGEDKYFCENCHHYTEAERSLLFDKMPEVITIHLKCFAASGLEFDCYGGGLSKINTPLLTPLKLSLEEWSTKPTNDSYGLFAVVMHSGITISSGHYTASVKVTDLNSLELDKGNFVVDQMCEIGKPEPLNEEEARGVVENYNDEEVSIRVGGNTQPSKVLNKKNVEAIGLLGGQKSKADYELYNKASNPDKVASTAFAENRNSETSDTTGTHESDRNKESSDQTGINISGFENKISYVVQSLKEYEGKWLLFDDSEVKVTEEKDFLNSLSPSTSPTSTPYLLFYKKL
USP1 (Recombinant Human His6-USP1/His6-UAF1 Complex Protein), sequence (Q8TAF3 whole entry partner): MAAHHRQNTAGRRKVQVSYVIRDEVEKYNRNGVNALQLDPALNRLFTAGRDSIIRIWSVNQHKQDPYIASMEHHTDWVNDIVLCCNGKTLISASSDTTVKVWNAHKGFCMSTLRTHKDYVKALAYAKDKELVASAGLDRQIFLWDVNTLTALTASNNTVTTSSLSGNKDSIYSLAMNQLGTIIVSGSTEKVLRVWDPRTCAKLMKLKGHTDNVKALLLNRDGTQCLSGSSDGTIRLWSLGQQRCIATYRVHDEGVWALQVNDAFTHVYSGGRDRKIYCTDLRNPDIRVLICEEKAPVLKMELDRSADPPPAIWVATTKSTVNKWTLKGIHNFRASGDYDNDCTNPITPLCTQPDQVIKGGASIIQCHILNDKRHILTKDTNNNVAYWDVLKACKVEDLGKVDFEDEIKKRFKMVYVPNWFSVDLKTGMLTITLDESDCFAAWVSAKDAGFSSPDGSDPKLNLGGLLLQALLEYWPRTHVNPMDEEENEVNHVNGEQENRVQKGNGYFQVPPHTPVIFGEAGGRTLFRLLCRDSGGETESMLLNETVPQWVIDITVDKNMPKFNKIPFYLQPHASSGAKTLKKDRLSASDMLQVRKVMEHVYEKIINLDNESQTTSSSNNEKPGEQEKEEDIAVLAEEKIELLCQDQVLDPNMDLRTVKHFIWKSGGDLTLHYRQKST

Row | IC50 [1] [nM] | GI50 [2] [nM] | SMILES
1 | 18 | 22.9 | CC(C)c1ncccc1-c1ncc2c(n1)N(Cc1ccc(-c3nc(C(F)(F)F)cn3C)cc1)CCO2 [Compound 1, 2-(2-isopropylpyridin-3-yl)-8-(4-(1-methyl-4-(trifluoromethyl)-1H-imidazol-2-yl)benzyl)-7,8-dihydro-6H-pyrimido[5,4-b][1,4]oxazine]
2 | – | 20.9 | COc1ncnc(C2CC2)c1-c1ncc2c(n1)N(Cc1ccc(-c3nc(C(F)(F)F)cn3C)cc1)CCO2 [Compound 2, 2-(4-cyclopropyl-6-methoxypyrimidin-5-yl)-8-(4-(1-methyl-4-(trifluoromethyl)-1H-imidazol-2-yl)benzyl)-7,8-dihydro-6H-pyrimido[5,4-b][1,4]oxazine]
3 | 21.3 | 47.3 | COc1ncnc(C2CC2)c1-c1cc2c(cn1)OCCN2Cc1ccc(-c2nc(C(F)(F)F)cn2C)cc1 [Compound 3, 7-(4-cyclopropyl-6-methoxypyrimidin-5-yl)-1-(4-(1-methyl-4-(trifluoromethyl)-1H-imidazol-2-yl)benzyl)-2,3-dihydro-1H-pyrido[3,4-b][1,4]oxazine]
4 | 43.3 | – | CC(C)c1ncccc1-c1ncc2c(n1)N(Cc1ccc(-c3nc(C(F)(F)F)cn3C)cc1)CC(=O)N2 [Compound 4, 2-(2-isopropylpyridin-3-yl)-8-(4-(1-methyl-4-(trifluoromethyl)-1H-imidazol-2-yl)benzyl)-7,8-dihydropteridin-6(5H)-one]
5 | – | 420 | COc1ncnc(C2CC2)c1-c1ncc2c(n1)N(Cc1ccc(-c3nc(C(F)(F)F)cn3C)cc1)C(=O)CO2 [Compound 6, 2-(4-cyclopropyl-6-methoxypyrimidin-5-yl)-8-(4-(1-methyl-4-(trifluoromethyl)-1H-imidazol-2-yl)benzyl)-6H-pyrimido [5,4-b][1,4]oxazin-7(8H)-one]
6 | – | 50.4 | COc1ncnc(C2CC2)c1-c1ncc2c(n1)N(Cc1ccc(-c3nc(C(F)(F)F)cn3C)cc1F)CCO2 [Compound 9, 2-(4-cyclopropyl-6-methoxypyrimidin-5-yl)-8-(2-fluoro-4-(1-methyl-4-(trifluoromethyl)-1H-imidazol-2-yl)benzyl)-7,8-dihydro-6H-pyrimido[5,4-b][1,4]oxazine]
7 | – | 11.4 | COc1ncnc(C2CC2)c1-c1ncc2c(n1)N(Cc1ccc(-c3nc(C(F)(F)F)cn3C)c(F)c1)CCO2 [Compound 32, 2-(4-cyclopropyl-6-methoxypyrimidin-5-yl)-8-(3-fluoro-4-(1-methyl-4-(trifluoromethyl)-1H-imidazol-2-yl)benzyl)-7,8-dihydro-6H-pyrimido[5,4-b][1,4]oxazine]
8 | 45.9 | – | COc1ncnc(C2CC2)c1-c1ncc2c(n1)N(Cc1ccc3c(c1)CCCn1cc(C(F)(F)F)nc1-3)CC(=O)N2C(C)C [Compound 47, 2-(4-cyclopropyl-6-methoxypyrimidin-5-yl)-5-isopropyl-8-((2-(trifluoromethyl)-6,7-dihydro-5H-benzo[c]imidazo[1,2-a]azepin-9-yl)methyl)-7,8-dihydropteridin-6(5H)-one]
9 | 26.1 | – | COc1ncnc(C2CC2)c1-c1ncc2c(n1)N(Cc1ccc3c(c1)CCCn1cc(C(F)(F)F)nc1-3)CC(=O)N2C1CC1 [Compound 48, 5-cyclopropyl-2-(4-cyclopropyl-6-methoxypyrimidin-5-yl)-8-((2-(trifluoromethyl)-6,7-dihydro-5H-benzo[c]imidazo[1,2-a]azepin-9-yl)methyl)-7,8-dihydropteridin-6-(5H)-one]
10 | 33.2 | – | COc1ncnc(C2CC2)c1-c1ncc2c(n1)N(Cc1ccc(-c3nc(C(F)(F)F)cn3C)c(F)c1)C(=O)OC2(C)C [Compound 49, 7-(4-cyclopropyl-6-methoxypyrimidin-5-yl)-4,4-dimethyl-1-(3-fluoro-4-(1-methyl-4-(trifluoromethyl)-1H-imidazol-2-yl)benzyl)-1,4-dihydro-2H-pyrimido[4,5-d][1,3]oxazin-2-one]
11 | 13.8 | – | COc1ncnc(C2CC2)c1-c1ncc2c(n1)N(Cc1ccc(-c3nc(C(F)(F)F)cn3C)c(F)c1)C(=O)OC21CC1 [Compound 51, 7′-(4-cyclopropyl-6-methoxypyrimidin-5-yl)-1′-(3-fluoro-4-(1-methyl-4-(trifluoromethyl)-1H-imidazol-2-yl)benzyl)spiro[cyclopropane-1,4′-pyrimido[4,5-d][1,3]oxazine]-2′(1′H)-one]
12 | 8.9 | – | COc1ncnc(C2CC2)c1-c1ncc2c(n1)N(Cc1ccc(-n3nc(C(F)(F)F)cc3C)cc1)C(=O)OC21CC1 [Compound 53, 7′-(4-cyclopropyl-6-methoxypyrimidin-5-yl)-1′-(4-(5-methyl-3-(trifluoromethyl)-1H-pyrazol-1-yl)benzyl)spiro[cyclopropane-1,4′-pyrimido[4,5-d][1,3]oxazine]-2′(1′H)-one]
13 | 23.2 | – | COc1ncnc(C2CC2)c1-c1ncc2c(n1)N(Cc1ccc(-n3nc(C(F)(F)F)cc3C)cc1)C(=O)OC21COC1 [Compound 54, 7′-(4-cyclopropyl-6-methoxypyrimidin-5-yl)-1′-(4-(5-methyl-3-(trifluoromethyl)-1H-pyrazol-1-yl)benzyl)spiro[oxetane-3,4′-pyrimido[4,5-d][1,3]oxazine]-2′(1′H)-one]
14 | 8.7 | – | COc1ncnc(C2CC2)c1-c1ncc2c(n1)N(Cc1ccc(-n3nc(C(F)(F)F)cc3C)cc1)C(=O)OC21CCC1 [Compound 55, 7′-(4-cyclopropyl-6-methoxypyrimidin-5-yl)-1′-(4-(5-methyl-3-(trifluoromethyl)-1H-pyrazol-1-yl)benzyl)spiro[cyclobutane-1,4′-pyrimido[4,5-d][1,3]oxazin]-2′(1′H)-one]
15 | 13.5 | – | C#CC1(C)OC(=O)N(Cc2ccc(-c3nc(C(F)(F)F)cn3C)c(F)c2)c2nc(-c3c(OC)ncnc3C3CC3)ncc21 (stereo not shown) [Compound 59, 7-(4-cyclopropyl-6-methoxypyrimidin-5-yl)-4-ethynyl-1-(3-fluoro-4-(1-methyl-4-(trifluoromethyl)-1H-imidazol-2-yl)benzyl)-4-methyl-1,4-dihydro-2H-pyrimido[4,5-d][1,3]oxazin-2-one]
16 | 22.7 | – | COc1ncnc(C2CC2)c1-c1ncc2c(n1)N(Cc1ccc(-c3nc(C(F)(F)F)cn3C)c(C(F)(F)F)c1)CCO2 [Compound 64]
17 | 38 | – | COc1ncnc(C2CC2)c1-c1ncc2c(n1)N(Cc1ccc(-n3nc(C(F)(F)F)cc3C)cc1)CC(=O)N2C1CC1 [Compound 72, 2-(4-cyclopropyl-6-methoxypyrimidin-5-yl)-8-(4-(5-methyl-3-(trifluoromethyl)-1H-pyrazol-1-yl)benzyl)-5-cyclopropyl-7,8-dihydropteridin-6(5H)-one]
18 | 14.8 | – | Cc1cc(C(F)(F)F)nn1-c1ccc(CN2C(=O)OC(C)(C)c3cnc(-c4c(OC(F)F)ncnc4C4CC4)nc32)cc1 [Compound 75, 7-(4-cyclopropyl-6-difluoromethoxypyrimidin-5-yl)-4,4-dimethyl-1-(4-(5-methyl-3-(trifluoromethyl)-1H-pyrazol-1-yl)benzyl)-1,4-dihydro-2H-pyrimido[4,5-d][1,3]oxazin-2-one]
19 | 69.7 | – | COc1ncnc(C2CC2)c1-c1ncc2c(n1)N(Cc1ccc(-c3nc(C(F)(F)F)cn3C)c(F)c1)N(C)C(=O)N2C [Compound 84, 7-(4-cyclopropyl-6-methoxypyrimidin-5-yl)-1-(3-fluoro-4-(1-methyl-4-(trifluoromethyl)-1H-imidazol-2-yl)benzyl)-2,4-dimethyl-1,4-dihydropyrimido[5,4-e][1,2,4]triazin-3(2H)-one]
20 | – | 1820 | Cc1cnc(-c2ccccc2C(C)C)nc1NCc1ccc(-n2ccnn2)cc1 [ML323, reference compound]
